Measurements from paper PMC3070735, “Uremic Toxins Inhibit Transport by Breast Cancer Resistance Protein and Multidrug Resistance Protein 4 at Clinically Relevant Concentrations” (PLoS ONE, 2011).
Structures can show the parent of a compound that is named as a salt. Where two headings read alike, the source gives them in different places. Marks after values point to notes of the source that are not given here.

Experiments:
[1] = Plasma concentrations of uremic toxins in CRF and ESRD patients and healthy controls (HPLC, LC/MS-MS); type: in vivo, human
Description: Blood samples were obtained from 4 patients with chronic renal failure (CRF) during regular check-up, 6 patients with end-stage renal disease (ESRD) before hemodialysis and 4 healthy controls. None of the subjects had been fasting at the time of blood sampling. Blood was collected in an EDTA Vacutainer and was immediately centrifuged at 3,000 x g for 10 min. Subsequently, plasma was collected and stored at −20°C. Before chromatography an aliquot of plasma was diluted in H2O (1∶1) and deproteinized with perchloric acid (final concentration 3.3% (v/v)). Next, samples were centrifuged at 12,000 x g for 3 min and 50 µl of the supernatant was injected into the HPLC-system (Spectra-Physics Analytical, Spectrasystem SCM400). […] Separation was performed at a flow rate of 1 ml/min with eluent A (95% (v/v) H2O, 5% (v/v) acetonitril and 0.1% (v/v) heptafluorobutyric acid) and eluent B (50% (v/v) H2O, 50% (v/v) acetonitrile and 0.1% (v/v) heptafluorobutyric acid) under the following gradient conditions: 0–1 min, 100% eluent A; 1–15 min, 100–25% eluent A; 15–17 min, 25% eluent A; 17–18 min, […]; 18–23 min, 100% eluent A. The compounds were detected at a wavelength of 230 nm. For the detection of phenylacetic acid, chromatography was performed on a C18 HPLC column (Polaris 3 C18-A 150×4.6 mm; Varian, Middelburg, the Netherlands) with eluent A (97% (v/v) 50 mM sodium phosphate buffer [pH 6.5] and 3% (v/v) methanol) and eluent B (50% (v/v) H2O, 49% (v/v) acetonitrile and 1% (v/v) tetrahydrofuran) using the following gradient: 0–1 min, 100% eluent A; 1–15 min, 100–90% eluent A; 15–18 min, 10–100% eluent B; 18–22 min, 100% eluent B; 22–25 min, 0–100% eluent A; 25–30 min, 100% eluent A. The flow rate was 1 ml/min and phenylacetic acid was measured at a wavelength of 215 nm. Standards of the compounds were also run in order to quantify the amount of toxins found in the samples. Acquired data were processed with PC1000 software (Spectrasystem).
To determine the levels of kynurenic acid, blood was collected from CRF patients and processed as described above. Subsequently, 10 µl of the clear supernatant was injected into the LC/MS-MS system that consisted of an Accela HPLC system (Thermo scientific, Breda, the Netherlands) equipped with a C18 HPLC column (VisionHT C18 B 100×2 mm, 1.5 µm; Grace). Separation was performed at a flow rate of 150 µl/min with eluent A (5 mM ammonium formate+0.01% (v/v) trifluoroacetic acid) and eluent B (50% acetonitrile) under the following gradient conditions: 0–10 min, 98–50% eluent A; 10–15 min, 50% eluent A; 15–16 min, 50–98% eluent A; 16–21 min, 98% eluent A. The fractions eluted were directly passed through a TSQ Vantage tandem mass spectrometer (Thermo scientific) equipped with an electro-spray ionization source operating in the positive ion mode. The ion spray voltage was 4 kV, source temperature was 350°C and collision gas pressure was 1.5 bar. Kynurinic acid and the internal standard 1-methyl-tryptophan were quantified by selected reaction monitoring (SRM). […] Acquired data were processed with Thermo Xcaliber software (Thermo scientific).

[2] = Uremic plasma concentrations (Cu, Cmax) in CKD patients from the EUTox database and literature; type: in vivo, human; conditions: calculated as Cmax = Cu + 2 SD; read-out: Hypothetical Cmax
Description: The calculated Ki and IC20 values were compared with the mean plasma concentrations measured in ESRD patients during this study (Cm), the highest mean/median (Cu) and the highest maximal plasma concentrations (Cmax) measured in the literature in patients with CKD are also shown. The IC20 value was used since we believe that a 20% decrease in transport can already have a clinical impact. The Cu and Cmax values were obtained from the online database of the European Uremic Toxin (EUTox) Work Group (www.uremic-toxins.org; [19]), unless stated otherwise.

[3] = plasma of CKD patients, cited from earlier work
[4] = CRF patients (n = 4), total plasma
[5] = ESRD patients (n = 6), total plasma
[6] = healthy controls (n = 4), total plasma

| SMILES | Cm, mean plasma concentration determined in this study ([1]; human, in vivo) | Mean plasma concentration [1, 4] | Cm, mean plasma concentration determined in this study [1, 5] | Mean plasma concentration [1, 6] | Cu, highest mean/median uremic concentration ([3]; ref www.uremic-toxins.org [19]) | further results |
| --- | --- | --- | --- | --- | --- | --- |
| O=C(O)Cc1c[nH]c2ccccc12 [indole-3-acetic acid] | 4 µM |  |  |  |  |  |
| O=C(O)Cc1ccccc1 [phenylacetic acid] |  | 4 µM | 18 µM | 5 µM |  | Maximum plasma concentration ([1]; CRF patients): 9 µM; Maximum plasma concentration ([1]; ESRD patients): 83 µM; Cmax [2]: 7700 µM; Cu, highest median plasma concentration [3]: 3.5 mM; Cu, highest mean/median uremic concentration ([3]; obtained from literature): 3490 ^a µM |
| O=S(=O)(O)Oc1c[nH]c2ccccc12 [indoxyl sulfate] |  | 65 µM | 129 µM | 13 µM | 211 µM |  |
| O=C(O)CNC(=O)c1ccccc1 [hippuric acid] | 160 µM |  |  |  | 1380 µM | Cu, highest median uremic concentration ([3]; ref www.uremic-toxins.org [19]): 1.4 mM; Cmax ([3]; ref www.uremic-toxins.org [19], read-out: Cmax, maximal uremic concentration): 2600 µM |
| O=C(O)c1cc(=O)c2ccccc2[nH]1 [kynurenic acid] | 1 µM |  |  |  |  |  |
